Patent US9096687B2, “Inhibition of inflammation using antagonists of MUC1” (DANA-FARBER CANCER INSTITUTE, INC., priority 2009, dated 2015)
Square brackets hold non-standard residues; d marks the D form. Ends that are not written are not given here.

Experiments:
[1] = test system: H-1975 non-small cell lung carcinoma cell line; conditions: H-1975 cells, 5 μM, 3 days
Method: H-1975 non-small cell lung carcinoma cell line was grown in DMEM with 10% heat-inactivated fetal bovine serum with 100 units/mL penicillin, 100 μg/ml streptomycin and 2 mmol/L L-glutamine. Cells were re-seeded one day before treatments. Cells were treated with 5 μM GO-200-2B for 3 days and cell viability was determined by trypan blue exclusion.
Moreover, another non-small cell lung carcinoma cell line, H-1975, was treated with 5 μM GO-200-2B for 3 days and monitored for cell growth as well as cell death.

[2] = test system: multiple carcinoma cell lines; assay: Growth and killing of carcinoma cell lines by L-amino acid MUC1 C-terminal peptides; type: cell-based
Description: GO-203 analogs. The inventors' recent studies have shown that a MUC1 C-terminal peptide (CQCRRKNYGQLDIFP; SEQ ID NO:3) is active in inhibiting growth of multiple carcinoma cell lines. […] However, these MUC1-C-terminal peptides consists of L-amino acids. […] Consequently, they have generated an all-dextro form of the above described shorter MUC1 C-terminal peptide, in which the L-amino acids were changed to D-amino acids (GO-203). Moreover, to determine the minimum amino acid residues from the MUC1-C-terminal region that are required to retain the cell killing activity, they have also generated many different versions of GO-203 as described in FIG. 15.

[3] = test system: ZR-75-1 breast carcinoma cells; assay: Proliferation of ZR-75-1 breast carcinoma cells (trypan blue exclusion); type: cell-based, Human; conditions: 5 μM every day for 4 days
Method: FIG. 17: Effect of different MUC1-CD CQC-region peptides on the growth of hormone-dependent breast carcinoma cells. To determine whether exposure to different MUC1-CD CQC-region containing peptides affect growth, ZR-75-1 breast carcinoma cells were treated with 5 μM of different peptides for 4 days and monitored for cell proliferation.
FIG. 21: Effect of Shorter GO-203 peptides on proliferation of ZR-75-1 Breast Cancer Cells. Human ZR-75-1 breast cancer cells were grown in RPMI1640 supplemented with 10% heat-inactivated fetal bovine serum, 100 units/ml penicillin, 100 μg/ml streptomycin. Cells were treated with different peptides at 5 μM every day for four days and cell viability was determined by trypan blue exclusion.
Multiple tumor cell lines (ZR-75-1 Hormone-dependent Breast Carcinoma; MDA-MB-231 Triple-Negative Breast Carcinoma; A549 Non-small Cell Lung Carcinoma; H-1975 Non-small Cell Lung Carcinoma) were grown in RPMI-1640 supplemented with 10% heat-inactivated fetal bovine serum, 100 units/mL penicillin and 100 μg/mL streptomycin and 2 mmol/L L-glutamine. Cells were treated separately with 5 μM of different analogs of GO-203 (FIG. 15) for 3 to 7 days and viability was determined by trypan blue exclusion. The proliferation of different cell lines was compared with cells treated with vehicle only.

[4] = target: T1, interaction between MUC1-CD and NF-κB p65 (Homo sapiens, UniProt P15941); assay: In vitro binding of GST-MUC1-CD to purified NF-κB p65 (glutathione bead adsorbates, anti-p65 immunoblot); conditions: 1 h at room temperature
T1 construct: a GST fusion protein containing the 72 amino acid MUC1-CD; made in house
T1 sequence (P15941 1184-1255): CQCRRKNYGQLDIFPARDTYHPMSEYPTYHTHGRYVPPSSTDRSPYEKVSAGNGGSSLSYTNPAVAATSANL
Method: In Vitro Binding Assays. GST, GST-MUC1-CD, GST-MUC1-CD(1-45) and GST-MUC1-CD(46-72) were prepared as described (Ahmad et al., 2007) and incubated with p65 and certain p65 deletion mutants. Purified GST-MUC1-CD was cleaved with thrombin to remove the GST moiety. GST-IκBα (Millipore, Billerica, Mass.) was incubated with p65(186-306) for 2 h at 25° C. in the absence and presence of purified MUC1-CD. Adsorbates to glutathione-conjugated beads were analyzed by immunoblotting.

[5] = test system: carcinoma cells overexpressing MUC1; assay: Growth arrest and necrosis of cells exposed to peptide; type: cell-based; conditions: for growth arrest and induction of necrosis: exposure of cells
Description: (§1) Previous Studies. Overexpression of MUC1 is sufficient for the induction of anchorage-independent growth and tumorigenicity (Li et al., 2003a; Huang et al., 2003; Huang et al., 2005). […] MUC1 forms oligomers and the CQC motif is necessary for this oligomerization (Leng et al., 2007). Moreover, oligomer formation is necessary for targeting of the MUC1-C subunit to the nucleus (Leng et al., 2007). The inventors synthesized a MUC1-derived peptide that contains the CQC motif and a poly-Arg cell delivery domain for entry into cells.

[6] = target: T2, IL-6-induced interaction between MUC1-C and STAT3 (Homo sapiens, UniProt P15941); assay: Anti-STAT3 co-immunoprecipitation from IL-6-stimulated MCF-10A cells; type: cell-based; parameters: dose or concentration left out as unconfirmed; conditions: peptide added each 24 h for 72 h
T2 construct: C-terminal subunit (MUC1 C-ter, MUC1-C), which includes a 58 amino acid extracellular region; endogenous in cells; host or cells: MCF-10A
T2 sequence (P15941 1098-1255 limits assumed): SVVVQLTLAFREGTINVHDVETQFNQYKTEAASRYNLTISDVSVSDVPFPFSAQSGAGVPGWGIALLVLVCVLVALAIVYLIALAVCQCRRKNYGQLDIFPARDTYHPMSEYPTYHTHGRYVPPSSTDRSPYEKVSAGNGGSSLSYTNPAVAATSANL

MUC1-CD oligomerization = target: T3, MUC1-CD oligomerization (Homo sapiens, UniProt P15941); assay: Oligomerization of MUC1-CD in vitro; type: biochemical
T3 construct: contains a 72-amino acid cytoplasmic domain (MUC1-CD)
T3 sequence (P15941 1184-1255): T1 sequence (P15941 1184-1255)
Description: as §1

[7] = target: T4, interaction between MUC1-CD and STAT3 (Homo sapiens, UniProt P15941); assay: In vitro binding of GST-STAT3 to purified MUC1-CD; conditions: 1 h at room temperature
T4 construct: a GST fusion protein containing the 72 amino acid MUC1-CD; GST (cleaved yes); made in house
T4 sequence (P15941 1184-1255): T1 sequence (P15941 1184-1255)

[8] = test system: MUC1-C levels in the nucleus; assay: MUC1-C levels in the nucleus after peptide uptake; type: cell-based; conditions: after uptake of the peptide
Description: as §1

MUC1 promoter = assay: Constitutive activation of the MUC1 promoter in breast cancer cells; type: cell-based
Method: (§2) MUC1-C Promotes STAT3-Mediated Transcription. […] In concert with these observations, silencing MUC1 in breast cancer cells was associated with decreases in (i) constitutive STAT3 occupancy on the STAT binding site, and (ii) constitutive activation of the MUC1 promoter. To provide further support for an auto-inductive loop, studies were performed with GO-201, an inhibitor of MUC1-C oligomerization (Raina, 2009). […] Moreover, GO-201 blocked IL-6 induced activation of the MUC1 promoter. […] These findings thus provide support for the potential importance of the MUC1-C-STAT3 interaction in targeting STAT3 to the MUC1 promoter and promoting activation of the MUC1 gene in an auto-inductive loop (FIG. 7D).

[9] = test system: STAT3 and MUC1-C on the MUC1 promoter; assay: ChIP of MUC1 promoter STAT binding site in IL-6-stimulated MCF-10A cells; type: cell-based, Human; conditions: 5 mM peptide added each 24 h for 72 h
[10] = test system: TNFα-induced MUC1 and Bcl-xL expression; assay: Immunoblot of lysates from TNFα-stimulated MCF-10A cells; type: cell-based, Human; conditions: 5 μM peptide added each 24 h for 72 h
Method: Immunoprecipitation and immunoblotting. Lysates from sub-confluent cells were prepared as described (Ren et al., 2004). Soluble proteins were precipitated with anti-NF-κB p65 (Santa Cruz Biotechnology, Santa Cruz, Calif.). The immunoprecipitates and cell lysates were subjected to immunoblotting with anti-p65, anti-p65 (180-306) (Millipore, Billerica, Mass.) anti-MUC1-C (Ab5; Lab Vision, Fremont, Calif.), anti-IκBα (Santa Cruz Biotechnology), anti-Bcl-xL (Santa Cruz Biotechnology) and anti-α-actin (Sigma, St. Louis, Mo.). Immune complexes were detected with horseradish peroxidase-conjugated secondary antibodies (GE Healthcare Biosciences, Piscataway, N.J.) and enhanced chemiluminescence (GE Healthcare).

pMUC1-Luc reporter = pMUC1-Luc reporter assay in IL-6-stimulated MCF-10A cells; type: cell-based, Human
Method: Luciferase Assays. Cells were transfected with NFκB-Luc (Ahmad et al., 2007) or pMUC1-Luc (Yin et al., 2003) and SV-40-Renilla-Luc (Promega, Madison, Wis.) in the presence of Lipofectamine. After 48 h, the cells were lysed in passive lysis buffer. Lysates were analyzed for firefly and Renilla luciferase activities using the dual luciferase assay kit (Promega).

[11] = target: T5, TNFα-induced interaction between MUC1-C and NF-κB p65 (Homo sapiens, UniProt P15941); assay: Anti-p65 co-immunoprecipitation from TNFα-stimulated MCF-10A cells; type: cell-based; conditions: 5 μM peptide added each 24 h for 72 h
T5 construct: C-terminal subunit (MUC1 C-ter, MUC1-C), which includes a 58 amino acid extracellular region; endogenous in cells; host or cells: MCF-10A
T5 sequence (P15941 1098-1255 limits assumed): T2 sequence (P15941 1098-1255 limits assumed)
Method: Cell Culture. Human ZR-75-1 breast cancer and U-937 leukemia cells were grown in RPMI 1640 medium containing 10% heat-inactivated fetal bovine serum (FBS), 100 units/ml penicillin, 100 μg/ml streptomycin and 2 mM L-glutamine. Human HeLa cervical and MCF-7 breast carcinoma cells were grown in Dulbecco's modified Eagle's medium with 10% FBS, antibiotics and L-glutamine. Human MCF-10A breast epithelial cells were grown in mammary epithelial cell growth medium (MEGM; Lonza, Walkersville, Md.) and treated with 20 ng/ml TNFα (BD Biosciences, San Jose, Calif.). Transfection of the MCF-10A cells with siRNA pools (Dharmacon, Lafayette, Colo.) was performed in the presence of Lipofectamine 2000 (Invitrogen, Carlsbad, Calif.). Cells were treated with 5 μM MUC1/CQC and MUC1/AQA peptides synthesized by the MIT Biopolymer Laboratory (Cambridge, Mass.).
Immunoprecipitation and immunoblotting. Lysates from sub-confluent cells were prepared as described (Ren et al., 2004). Soluble proteins were precipitated with anti-NF-κB p65 (Santa Cruz Biotechnology, Santa Cruz, Calif.). […] Immune complexes were detected with horseradish peroxidase-conjugated secondary antibodies (GE Healthcare Biosciences, Piscataway, N.J.) and enhanced chemiluminescence (GE Healthcare).

tumor growth = assay: Administration to tumor bearing mice
Description: as §1

[12] = test system: MUC1-C and NF-κB p65 occupancy of the NF-κB binding motif in the MUC1 promoter; assay: ChIP of MUC1 promoter NF-κB binding motif in TNFα-stimulated MCF-10A cells; conditions: 5 μM peptide added each 24 h for 72 h
Method: MCF-10A cells were left untreated or stimulated with TNFα in the presence of 5 μM MUC1/CQC or MUC1/AQA peptide added each 24 h for 72 h. […] (FIGS. 6B and 6C) MCF-10A cells were left untreated or stimulated with TNFα in the presence of 5 μM MUC1/CQC or MUC1/AQA peptide added each 24 h for 72 h. Soluble chromatin was precipitated with anti-MUC1-C (left) or anti-p65 (right) and then analyzed for MUC1 NF-κB binding motif promoter sequences (FIG. 6B).
ChIP Assays. Soluble chromatin was prepared as described (Wei et al., 2006) and precipitated with anti-p65, anti-MUC1-C or a control non-immune IgG. […] For PCR, 2 μl from a 50 μl DNA extraction was used with 25-35 cycles of amplification.

[13] = test system: MUC1-C and STAT3 occupancy of the MUC1 promoter; assay: Constitutive occupancy of the MUC1 promoter in breast cancer cells; type: cell-based
Method: as §2

severe sepsis = conditions: decreased from about 31%; cited from earlier work
[14] = tumor bearing mice, 10 and 30 mg/kg/d for 21 d

For `CC(=O)N[C@@H](C)C(=O)N[C@@H](CCCCN)C(=O)N[C@@H](CCCCN)C(=O)N[C@@H](Cc1ccc(O)cc1)C(=O)N[C@@H](CC(C)C)C(=O)N[C@@]1(C)CCCC=CCCCC2(CCCC=CCCC[C@@](C)(C(=O)N[C@@H](CCCNC(=N)N)C(=O)N[C@@H](CCCCN)C(=O)N[C@@H](CC(N)=O)C(=O)N[C@@H](Cc3ccc(O)cc3)C(N)=O)NC(=O)[C@H](CS)NC(=O)[C@H](CCC(N)=O)NC(=O)[C@H](CS)NC2=O)NC(=O)[C@H](C)NC(=O)[C@H](CC(C)C)NC(=O)[C@H](C)NC1=O` (stereo partly shown) [GO-200-2B], the “induction of cell death” value [1] was “significant induction of cell death”.

With “CQCRRKN [shorter MUC1-C-terminal peptide consisting of L-amino acids]” the killing tumor cells [2] was “active”.

With CQCRRKNYGQLDIFP the “inhibiting growth of multiple carcinoma cell lines” value [2] was “active”.

In the case of “GO-203: all-dextro form of the shorter MUC1 C-terminal peptide CQCRRKN (SEQ ID NO:53), L-amino acids changed to D-amino acids ([dC][dQ][dC][dR][dR][dK][dN]; cysteine pairing not given here)”, the “growth of ZR-75-1 breast carcinoma cells” value [3] is reported as “significant inhibition of growth”.

For “GO-207: shorter GO-203 peptide, SEQ ID NO:4 (CQCRRK)”, the “growth of ZR-75-1 breast carcinoma cells” value [3] was “significant inhibition of growth”.

In the case of “GO-208: shorter GO-203 peptide, SEQ ID NO:50 (CQCRR)”, the “growth of ZR-75-1 breast carcinoma cells” value [3] is reported as “significant inhibition of growth”.

With “GO-209: shorter GO-203 peptide, SEQ ID NO:54 (CQCR)” the “growth of ZR-75-1 breast carcinoma cells” value [3] was “significant inhibition of growth”.

With “MUC1/AQA: control peptide in which the CQC motif was mutated to AQA (SEQ ID NO:62), with poly D-arginine transduction domain (AQARRKNYGQLDIFP; also: poly D-arginine transduction domain, not placed) [reference compound]” the “interaction between MUC1-CD and NF-κB p65 in vitro” value [4] was “little if any effect”, the “growth arrest and induction of necrosis” value [5] was “not” and the “IL-6-induced interaction between MUC1-C and STAT3” value [6] was “not”. The “oligomerization of MUC1-CD in vitro” value (MUC1-CD oligomerization) was “did not” and the “interaction between MUC1-CD and STAT3 in vitro” value [7] was “not”.

With “MUC1/CQC: peptide corresponding to MUC1-CD(1-15) (SEQ ID NO:3, CQCRRKNYGQLDIFP) with poly D-arginine transduction domain; inhibitor of MUC1-C oligomerization (cysteine pairing not given here; also: poly D-arginine transduction domain, not placed)” the “interaction between MUC1-CD and NF-κB p65 in vitro” value [4] was “blocked the interaction”, the “MUC1-C levels in the nucleus” value [8] was “down-regulation” and the “selectivity of dominant-negative activity” value [5] was “selective for carcinoma cells overexpressing MUC1”. For the same molecule, the “growth arrest and induction of necrosis” value [5] was “growth arrest and the induction of necrosis”, the “IL-6-induced interaction between MUC1-C and STAT3” value [6] was “blocked” and the “constitutive activation of the MUC1 promoter” value (MUC1 promoter) was “inhibits”. The “IL-6-induced targeting of STAT3 and MUC1-C to the MUC1 promoter” value [9] was “inhibited”, the “TNFα-induced Bcl-xL expression” value [10] was “attenuated” and the “TNFα-induced MUC1 expression” value [10] was “decreased”. The “IL-6-induced activation of the pMUC1-Luc reporter” value (pMUC1-Luc reporter) was “attenuated”, the “TNFα-induced interaction between MUC1-C and NF-κB p65” value [11] was “blocked” and the “tumor growth following treatment” value (tumor growth; 50 mg/kg/d for 7 d) was “tumor growth remains arrested for extended periods”. For the same molecule, the tolerability (tumor growth; [14]) was “well-tolerated without apparent acute toxicities”, the tumor growth (tumor growth; [14]) was “effective in abrogating tumor growth” and the “oligomerization of MUC1-CD in vitro” value (MUC1-CD oligomerization) was “inhibits”. The “TNFα-induced MUC1-C and NF-κB p65 occupancy of the NF-κB binding motif” value [12] was “decreased”, the “interaction between MUC1-CD and STAT3 in vitro” value [7] was “blocked” and the “constitutive occupancy of the MUC1 promoter by MUC1-C and STAT3” value [13] was “inhibits”.

For drotrecogin alfa, the mortality (severe sepsis) is listed as “about 25%”.
